Assay results published in patent publication US10421722B2, “Sulfur-containing compounds targeting vesicular acetylcholine transporter” (Washington University, priority 2016, dated 2019).

Legend:
VAChT [1] = target: VAChT (Rattus norvegicus (Rat), UniProt Q62666); experiment: Ex vivo autoradiography of rat brain; assay type: in vivo, Sprague-Dawley rat; details: for uptake ratio of radioactivity in striatum versus cerebellum: 30 slices, 60 min post-injection, tail vein; for brain distribution of radioactivity (autoradiograms): 1 h after injection
Chain of VAChT (Rattus norvegicus (Rat), UniProt Q62666) (Q62666 whole entry): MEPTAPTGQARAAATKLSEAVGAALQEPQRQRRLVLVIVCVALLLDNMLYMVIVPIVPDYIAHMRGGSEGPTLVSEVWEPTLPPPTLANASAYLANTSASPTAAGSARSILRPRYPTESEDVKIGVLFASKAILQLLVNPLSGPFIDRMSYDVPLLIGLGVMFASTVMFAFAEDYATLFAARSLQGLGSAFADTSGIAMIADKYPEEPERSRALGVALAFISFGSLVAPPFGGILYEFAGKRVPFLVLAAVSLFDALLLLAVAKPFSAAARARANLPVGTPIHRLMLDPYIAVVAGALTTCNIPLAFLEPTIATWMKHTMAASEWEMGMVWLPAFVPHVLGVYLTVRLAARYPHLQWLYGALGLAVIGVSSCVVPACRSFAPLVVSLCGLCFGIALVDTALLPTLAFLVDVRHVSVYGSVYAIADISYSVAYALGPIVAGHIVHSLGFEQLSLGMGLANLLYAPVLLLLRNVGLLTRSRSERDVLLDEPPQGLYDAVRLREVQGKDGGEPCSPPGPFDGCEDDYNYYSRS
Procedure: Ex vivo autoradiography was performed on 6-8 month old male Sprague-Dawley rats to confirm the brain distribution of radiolabeled VAChT ligands. Mature male Sprague-Dawley rats were injected with ˜500 μCi of (−)-[^11C]3 or (−)-[^18F]9a via the tail vein under isoflurane/oxygen anesthesia, respectively. The rats were euthanized after 1 h and the brains were quickly removed and placed in a metal brain matrix with slots spaced at 1 mm intervals. The brains were then frozen in the matrix and sectioned into 100 μm coronal slices. Brain slices were carefully removed from the brain matrix razor blades and placed on a clear sheet covered with film and mounting on glass slides. Then, the brain sections were exposed to the film in an imaging cassette for 12 h before they were counted by the FLA7000. Photographic images were obtained using a flatbed scanner. […] There was also moderate uptake in other regions, which may be caused by the moderate binding activity to σ1 receptor. The quantification of autoradiography from entire 30 brain slices indicated the uptake ratio of radioactivity in striatum versus cerebellum reached 1.75 and 1.54, respectively. (FIGS. 6B and 6D)

VAChT [2] = details: cynomolgus monkey, in vivo
Procedure: PET studies were performed on adult male cynomolgus monkeys (6-8 kg) with a MicroPET Focus 220 scanner (Concorde/CTI/Siemens Microsystems, Knoxville, Tenn.). The animal was anesthetized using an intramuscular injection with ketamine (10-20 mg/kg) and glycopyrrolate (0.013-0.017 mg/kg) and then transported to the PET scanner suit. After arrival, the animal was intubated with an endotracheal tube and anesthesia was maintained at 0.75-2.0% isoflurane/oxygen throughout the procedure, and then a percutaneous venous catheter was placed for radiotracer injection. A heated water blanket was used to keep the temperature at 37° C. In each MicroPET scanning session, the head was positioned supine in the adjustable head holder with the brain in the center of the field of view. A 10-min transmission scan was performed to check positioning; once confirmed, a 45 min transmission scan was obtained for attenuation correction. Subsequently, a 2 h dynamic emission scan was acquired after administration of 296-410 MBq of (−)-[^11C]3 or (−)-[^18F]9a via the venous catheter. PET scans were collected from 0-120 min with the following time frames: 3×1 min, 4×2 min, 3×3 min and 20×5 min. PET image reconstructed resolution was <2.0 mm full width half maximum for all 3 dimensions at the center of the field of view. Emission data were corrected using individual attenuation and model-based scatter correction and reconstructed using filtered back projection. The first baseline PET image for each animal acted as the target image with the MPRAGE and subsequent PETs co-registered using automated image registration program AIR. All MPRAGE-based volume of interest (VOI) analyses were accomplished by experienced investigators. For quantitative analyses, three-dimensional ROIs (striatum, cerebellum, frontal cortex, occipital cortex, temporal, midbrain, hippocampus and thalamus) were transformed to the baseline PET space and then overlaid on all reconstructed PET images to obtain time-activity curves. Activity measures were standardized to body weight and dose of radioactivity injected to yield standardized uptake value (SUV).

[3] = Radiometabolite analysis of NHP arterial plasma; assay type: in vivo, cynomolgus monkey
Procedure: In order to further understand the kinetic property, radioactive metabolite analysis on HPLC was performed for NHP plasma. (−)-[^18F]9a was chosen for this study because of the high uptake and longer half live of ^18F. Arterial blood samples (1.2-1.5 mL) were collected at 2, 5, 15, 30, and 60 min post-injection of the radiotracer in a heparinized syringe. Aliquots of whole blood (1 mL) were counted in a well counter, then centrifuged to separate red blood cells from plasma. Aliquots of plasma (400 μL) were deproteinated using ice-cold methanol (0.92 mL) and separated by centrifugation. The solvent extract was then injected onto HPLC to identify the percentage of radioactive parent compound versus any radiolabeled metabolites. The HPLC system consisted of an Agilent SB C-18 analytic HPLC column (250 mm×4.6 mm) and an UV detector with wavelength set at 254 nm. The mobile phase was 43% acetonitrile in 0.1 M ammonium formate buffer (pH 4.5), and the flow rate was 1.0 mL/min. The HPLC fractions were collected at 1 min intervals for 16 min; each fraction was counted by a well counter to determine the radioactivity of each collection. The results were corrected for background radiation and physical decay.

| SMILES | uptake ratio of radioactivity in striatum versus cerebellum (VAChT [1]) | brain distribution of radioactivity (autoradiograms) (VAChT [1]) | brain entry (VAChT [2]) | maximum standardized uptake value (SUV) in striatum (VAChT [2]) | regional brain accumulation (VAChT [2]) | time at which striatal SUV reached maximum (VAChT [2]) | percentage of parent compound in plasma ([3]; NHP arterial plasma, 2 min post-injection) | percentage of parent compound in plasma ([3]; NHP arterial plasma, 5 min post-injection) | percentage of parent compound in plasma ([3]; NHP arterial plasma, 15 min post-injection) | percentage of parent compound in plasma ([3]; NHP arterial plasma, 30 min post-injection) | percentage of parent compound in plasma ([3]; NHP arterial plasma, 60 min post-injection) | percentage of hydrophilic radioactive metabolite ([3]; NHP arterial plasma, peaked after 30 min) | metabolism in plasma ([3]; NHP plasma, HPLC metabolite analysis) |
| --- | --- | --- | --- | --- | --- | --- | --- | --- | --- | --- | --- | --- | --- |
| [11CH3]Sc1ccc(C(=O)C2CCN([C@@H]3Cc4ccccc4C[C@H]3O)CC2)cc1 (single isomer, unassigned) [(−)-[^11C]3] | 1.75 | high accumulation in the VAChT enriched striatum | able to enter the NHP brain | 4.0 | highest accumulation in the striatal region | 10 min | – | – | – | – | – | – | – |
| O=C(c1ccc(SCC[18F])cc1)C1CCN([C@@H]2Cc3ccccc3C[C@H]2O)CC1 (single isomer, unassigned) [(−)-[^18F]9a] | 1.54 | high accumulation in the VAChT enriched striatum | able to enter the NHP brain | – | highest accumulation in the striatal region | 6 min | 69% | 48% | 27% | 21% | 15% | 70% | quickly metabolized in the plasma |
